Measurements published in article PMC3366976, “Tuning the Drug Efflux Activity of an ABC Transporter in vivo by in vitro Selected DARPin Binders” (PLoS ONE, 2012).

Target: T1, LmrCD (Lactococcus cremoris, UniProt A2RI37+A2RI38, A2RI37:C179R)
T1 construct: gene lmrC
Assay: biochemical

T1 sequence (A2RI37 entry or part of it C179R): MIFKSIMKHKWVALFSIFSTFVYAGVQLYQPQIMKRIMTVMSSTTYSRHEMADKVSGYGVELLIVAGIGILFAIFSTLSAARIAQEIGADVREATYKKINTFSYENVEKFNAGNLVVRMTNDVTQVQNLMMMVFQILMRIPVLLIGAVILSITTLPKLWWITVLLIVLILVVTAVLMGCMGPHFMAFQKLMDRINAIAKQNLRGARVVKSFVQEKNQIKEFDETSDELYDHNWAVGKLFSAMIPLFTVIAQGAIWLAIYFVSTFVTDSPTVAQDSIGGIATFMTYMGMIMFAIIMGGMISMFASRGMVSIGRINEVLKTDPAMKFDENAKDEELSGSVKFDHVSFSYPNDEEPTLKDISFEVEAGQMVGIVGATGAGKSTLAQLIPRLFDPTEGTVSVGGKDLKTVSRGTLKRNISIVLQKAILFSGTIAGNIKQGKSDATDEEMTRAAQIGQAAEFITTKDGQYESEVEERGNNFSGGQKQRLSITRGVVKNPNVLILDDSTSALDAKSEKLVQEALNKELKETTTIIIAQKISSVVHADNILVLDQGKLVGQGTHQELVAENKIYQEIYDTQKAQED
T1 sequence (A2RI38 entry or part of it): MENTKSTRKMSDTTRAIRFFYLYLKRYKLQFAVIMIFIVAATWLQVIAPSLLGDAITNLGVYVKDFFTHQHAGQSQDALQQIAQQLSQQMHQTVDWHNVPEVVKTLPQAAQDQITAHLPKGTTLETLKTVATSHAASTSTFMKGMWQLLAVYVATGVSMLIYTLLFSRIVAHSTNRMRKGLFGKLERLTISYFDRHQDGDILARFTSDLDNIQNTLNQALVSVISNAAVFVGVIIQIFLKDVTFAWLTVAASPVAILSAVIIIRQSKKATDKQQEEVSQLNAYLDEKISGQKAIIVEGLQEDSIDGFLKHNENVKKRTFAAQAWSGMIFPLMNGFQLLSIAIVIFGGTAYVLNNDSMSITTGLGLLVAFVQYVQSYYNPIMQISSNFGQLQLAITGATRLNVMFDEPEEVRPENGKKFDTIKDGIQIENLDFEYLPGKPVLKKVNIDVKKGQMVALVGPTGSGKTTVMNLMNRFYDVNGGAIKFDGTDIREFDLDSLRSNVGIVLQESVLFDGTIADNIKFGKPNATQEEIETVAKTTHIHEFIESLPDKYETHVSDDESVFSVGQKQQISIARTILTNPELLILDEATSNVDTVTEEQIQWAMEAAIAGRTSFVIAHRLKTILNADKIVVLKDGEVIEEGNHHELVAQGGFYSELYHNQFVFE

**Q.** `[O]=[V]([OH])([OH])[OH]` [orthovanadate] was tested. Which IC50 did it give?
**A.** 120 µM
